Data from US10167262B2, “Herbicidal substituted 3-arylpyrazoles” (FMC CORPORATION, priority 2014, dated 2019).

Experiments:
Type in all cases: in vivo
[1] = test system: barnyardgrass (Echinochloa crus-galli); experiment: Test A pre-/postemergence greenhouse herbicide test, visual injury rating 0-100
How it was run: (§1)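 Greenhouse plants received compound either as directed soil spray at planting or as postemergence spray at the one- to two-leaf stage (2–10 cm). Evaluated after about 10 days by visual comparison with untreated controls.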

corn (Zea mays) = experiment: as above
How it was run: as §1

[2] = test system: giant foxtail (Setaria faberii); experiment: as above
How it was run: as §1

[3] = test system: large (Lg) crabgrass (Digitaria sanguinalis); experiment: as above
How it was run: as §1

[4] = test system: morningglory (Ipomoea spp.); experiment: as above; conditions: Preemergence
How it was run: as §1

[5] = test system: pigweed (Amaranthus retroflexus); experiment: as above
How it was run: as §1

[6] = test system: velvetleaf (Abutilon theophrasti); experiment: as above
How it was run: as §1

[7] = test system: wheat (Triticum aestivum); experiment: as above
How it was run: as §1

[8] = test system: Italian ryegrass (Lolium multiflorum); experiment: Test C pre-/postemergence greenhouse test, plant response rating 0-100; conditions: Postemergence
How it was run: (§2)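 Greenhouse test. Preemergence: seed in loam:sand, sprayed with formulated chemical (solvent + surfactant). Postemergence: 1–4 leaf plants, 2–18 cm, peat-based potting medium. Hold 13–15 d; score visually, 0 (none) to 100 (complete control); dash = not tested.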

[9] = test system: galium (catchweed bedstraw, Galium aparine); experiment: as above; conditions: Postemergence
How it was run: as §2

[10] = test system: morningglory (Ipomoea coccinea); experiment: as above; conditions: Postemergence
How it was run: as §2

[11] = test system: ragweed (common ragweed, Ambrosia elatior); experiment: as above; conditions: Postemergence
How it was run: as §2

[12] = test system: velvetleaf (Abutilon theophrasti); experiment: as above; conditions: Postemergence
How it was run: as §2

CC(C)n1cc(C(=O)c2ccccc2)c(-c2cc(Cl)cc(Cl)c2)n1 [Compound 44]
Plant response rating (0 to 100 scale), Barnyardgrass ([1]; Postemergence, 125 g ai/ha): 0
Plant response rating (0 to 100 scale), Barnyardgrass ([1]; Postemergence, 500 g ai/ha): 0
Barnyardgrass plant response rating (0 = no effect, 100 = complete control) ([1]; Preemergence, 125 g ai/ha): 0
Plant response rating (0 to 100 scale), Barnyardgrass ([1]; Preemergence, 500 g ai/ha): 0
Plant response rating (0 to 100 scale), Corn (corn (Zea mays); Postemergence, 125 g ai/ha): 0
Plant response rating (0 to 100 scale), Corn (corn (Zea mays); Postemergence, 500 g ai/ha): 0
Corn plant response rating (0 = no effect, 100 = complete control) (corn (Zea mays); Preemergence, 125 g ai/ha): 0
Plant response rating (0 to 100 scale), Corn (corn (Zea mays); Preemergence, 500 g ai/ha): 0
Plant response rating (0 to 100 scale), Foxtail, Giant ([2]; Postemergence, 125 g ai/ha): 0
Plant response rating (0 to 100 scale), Foxtail, Giant ([2]; Postemergence, 500 g ai/ha): 0
Foxtail, Giant plant response rating (0 = no effect, 100 = complete control) ([2]; Preemergence, 125 g ai/ha): 0
Plant response rating (0 to 100 scale), Foxtail, Giant ([2]; Preemergence, 500 g ai/ha): 0
Plant response rating (0 to 100 scale), Crabgrass, Large ([3]; Postemergence, 125 g ai/ha): 0
Plant response rating (0 to 100 scale), Crabgrass, Large ([3]; Postemergence, 500 g ai/ha): 0
Crabgrass, Large plant response rating (0 = no effect, 100 = complete control) ([3]; Preemergence, 125 g ai/ha): 0
Plant response rating (0 to 100 scale), Crabgrass, Large ([3]; Preemergence, 500 g ai/ha): 0
Morningglory plant response rating (0 = no effect, 100 = complete control) ([4]; 125 g ai/ha): 0
Plant response rating (0 to 100 scale), Morningglory ([4]; 500 g ai/ha): 0
Plant response rating (0 to 100 scale), Pigweed ([5]; Postemergence, 125 g ai/ha): 80
Plant response rating (0 to 100 scale), Pigweed ([5]; Postemergence, 500 g ai/ha): 100
Pigweed plant response rating (0 = no effect, 100 = complete control) ([5]; Preemergence, 125 g ai/ha): 0
Plant response rating (0 to 100 scale), Pigweed ([5]; Preemergence, 500 g ai/ha): 70
Plant response rating (0 to 100 scale), Velvetleaf ([6]; Postemergence, 125 g ai/ha): 90
Plant response rating (0 to 100 scale), Velvetleaf ([6]; Postemergence, 500 g ai/ha): 90
Velvetleaf plant response rating (0 = no effect, 100 = complete control) ([6]; Preemergence, 125 g ai/ha): 20
Plant response rating (0 to 100 scale), Velvetleaf ([6]; Preemergence, 500 g ai/ha): 40
Plant response rating (0 to 100 scale), Wheat ([7]; Postemergence, 125 g ai/ha): 0
Plant response rating (0 to 100 scale), Wheat ([7]; Postemergence, 500 g ai/ha): 0
Wheat plant response rating (0 = no effect, 100 = complete control) ([7]; Preemergence, 125 g ai/ha): 0
Plant response rating (0 to 100 scale), Wheat ([7]; Preemergence, 500 g ai/ha): 0
Plant response rating (0 to 100), Ryegrass, Italian ([8]; 62 g ai/ha): 0
Plant response rating (0 to 100), Ryegrass, Italian ([8]; 125 g ai/ha): 0
Plant response rating, Ryegrass, Italian ([8]; 250 g ai/ha, scale 0 to 100): 0
Plant response rating (0 to 100), Galium ([9]; 31 g ai/ha): 0
Plant response rating (0 to 100), Galium ([9]; 62 g ai/ha): 0
Plant response rating (0 to 100), Galium ([9]; 125 g ai/ha): 0
Plant response rating, Galium ([9]; 250 g ai/ha, scale 0 to 100): 0
Plant response rating (0 to 100), Morningglory ([10]; 62 g ai/ha): 0
Plant response rating (0 to 100), Morningglory ([10]; 125 g ai/ha): 5
Plant response rating, Morningglory ([10]; 250 g ai/ha, scale 0 to 100): 5
Plant response rating (0 to 100), Ragweed ([11]; 62 g ai/ha): 5
Plant response rating (0 to 100), Ragweed ([11]; 125 g ai/ha): 5
Plant response rating, Ragweed ([11]; 250 g ai/ha, scale 0 to 100): 10
Plant response rating (0 to 100), Velvetleaf ([12]; 62 g ai/ha): 60
Plant response rating (0 to 100), Velvetleaf ([12]; 125 g ai/ha): 75
Plant response rating, Velvetleaf ([12]; 250 g ai/ha, scale 0 to 100): 80
